Experimental data from paper PMC10025185, “A continuous in silico learning strategy to identify safety liabilities in compounds used in the leather and textile industry” (Archives of Toxicology, 2023).
Where two headings read alike, the source gives them in different places.

Legend:
[1] = tested on: CHO-K1 (Chinese hamster ovary cells); assay type: cell-based
Protocol: The in vitro micronucleus test is a genotoxicity test for the detection of micronuclei in the cytoplasm of interphase cells. Tests were conducted in the presence of the cytokinesis blocker cytochalasin B with three different treatment schedules: (i) short treatment for 6 h; (ii) short treatment for 6 h in the presence of an exogenous source of metabolic activation (cofactor supplemented S9 liver fraction); and (iii) extended treatment for 24 h.
CHO-K1 (Chinese hamster ovary cells, ATCC Item Number CCL-61) were cultured in DMEM F-12 containing 10% foetal bovine serum and 100 units/ml penicillin/100 μg/ml streptomycin (all from Sigma-Aldrich, St Louis, USA). Cells were seeded at 3000 cells/well in a collagen-coated 96-well plate in 100 μl. After 24 h, cells were incubated with CellTracker Orange CMTMR cellular dye solution (Invitrogen, Waltham, USA) for 1 h. Cells were then treated with compounds for 6 h, with or without S9 metabolic activation, or 24 h without S9 metabolic activation. […] After the 6-h compound treatment, cells were incubated with cytochalasin B (Alfa Aesar, Kandel, Germany) for 24 h. In case of 24-h treatment, cells were incubated with compounds in the presence of cytochalasin B and harvested after treatment. Benzo(a)pyrene, mitomycin C, and colchicine were used as positive controls for 6 h, with or without metabolic activation or 24 h treatments, respectively. […] After several washes with BupH-modified DPBS, cells were analysed in an Operetta High-Content Imaging System (PerkinElmer, Waltham, USA). […] Statistical significance was determined with the ANOVA test with significance level adjusted to p < 0.05.

[2] = tested on: androgen and oestrogen receptors; experiment: ED assays of androgen and oestrogen receptors (overall experimental ED result); assay type: cell-based
Protocol: The transcriptional activation of androgen receptor (AR) assays was carried out by adapting the OECD protocol 458 (OECD [2020]).
MDA-MB-453 cells (8000 cells/well) expressing an AR luciferase reporter were seeded into 384 white plates (Greiner 781098) in culture medium (DMEM (ATCC), 10% foetal bovine serum (Sigma Aldrich), 1% penicillin–streptomycin (Sigma-Aldrich), 75 µg/ml geneticin (Gibco) and incubated overnight at 37 °C 5% CO2 and 95% humidity. After this time, the cell culture medium was discarded and replaced by assay medium (DMEM (ATCC), 0.1% foetal bovine serum (Sigma-Aldrich), and 1% penicillin–streptomycin (Sigma Aldrich)).
For studying a putative agonist effect, compounds were added to the assay plate using an Echo 550 acoustic liquid handler and incubated overnight at 37 °C 5% CO2 and 95% humidity. For studying the putative antagonist effect, compounds were added using an Echo 550 acoustic liquid handler and incubated for 15 min at 37 °C 5% CO2 and 95% humidity. Then, 1 nM 5α-dihydrotestosterone (DHT) was added, and the cell plate was incubated overnight at 37 °C, 5% CO2, and 95% humidity. After compound incubation, the cell medium was removed, 5 µl of lysis buffer 1X (Promega) was added, and the cell plate was incubated with agitation 15 min at room temperature. A freeze–thaw cycle of 10 min at −80 °C and room temperature was performed. Then 25 µl of luciferase assay reagent (Promega) was added and luminescence was determined on an EnSpire plate reader (Perkin Elmer). Data was fitted to a four-parameter sigmoidal model with Prism 5.1 (Graphpad, Inc).
The transcriptional activation of oestrogen receptor (ER) assay was carried out by adapting the OECD protocol 455 (OECD [2021]) and the method of Li et al. ([2013]).
ER luciferase reporter T47D cells (5000 cells/well) were seeded into 384 white plates (Greiner 781098) in culture medium (RPMI 1640 (Thermo Fisher Scientific 52400), 10% foetal bovine serum (Sigma Aldrich F9665), 1% penicillin–streptomycin (Sigma-Aldrich P0781), 75 µg/ml Geneticin (Gibco 10131)) and incubated overnight at 37 °C and 5% CO2. The following day, the cell culture medium was discarded and replaced by assay medium (RPMI 1640 (Thermo Fisher Scientific 52,400), 0.1% foetal bovine serum (Sigma Aldrich F9665), and 1% penicillin–streptomycin (Sigma Aldrich P0781).
The assay was performed as stated before for the AR assay using 17β-estradiol as agonist instead of DHT.
ED was assessed by transactivation in vitro assays to identify agonists and antagonists of the androgen and oestrogen receptors.
Also, the experimental group analysed the endocrine-disrupting activity for the CMR compounds.

[3] = logKow as a measure of bioaccumulation, extracted from public databases; assay type: physicochemical; settings: yes/no by logKow, REACH cut off 4,5
[4] = parameters: method as in earlier work; settings: ref https://comptox.epa.gov/dashboard, https://echa.europa.eu/es/information-on-chemicals, cited from earlier work
zebrafish embryos [5] = settings: in vivo
Source text: In REACH, most of the mammalian tests for chemical safety assessment are related to reproductive toxicity (ECHA [2020]; Rovida and Hartung [2009]; Sellick [2011]) and consider complex molecular and cellular mechanisms determined in long-term experiments with very low throughput. To avoid the use of animals and to assay reproductive toxicity in a relevant 'non-animal' model adhering to the 3Rs rule, we used zebrafish embryos up to 120 hpf. Up to this developmental stage, the embryos are not considered animals according to European legislation (Sellick [2011]). When they reach the stage of independent feeding, zebrafish embryos become subject to regulations for animal experimentation. We performed a set of previously described experiments to cover a wide range of potential reprotoxic effects, including terato-carcinogenesis, developmental neurotoxicity, and endocrine disruption.
(§1) Zebrafish embryos obtained and maintained as described previously for toxicity determination were used to determine (I) terato-carcinogenesis assayed as previously informed (Selderslaghs et al. [2009], [2012]) with modifications. In brief, embryos were incubated for 0 hpf up to 120 hpf in the presence and absence of tested compounds. Each condition was assayed in triplicate with 12 embryos per condition per replicate. The appearance of selected characteristics and malformations with respect to normal development were quantified for the eyes, otoliths, heart, circulation, hatching, skeletal deformities, and body position. For each concentration tested, we assessed the mortality and the presence of malformations at 24, 48, 72, 96, and 120 hpf using a light microscope. When possible, the lethal effects (LC50) and terato-carcinogenic effects (EC50) were determined using the ToxRat software. Based on these values, a teratogenic index (TI) was calculated as LC50/EC50. Based on previous studies, we considered a compound to be a teratogen when TI > 2 at 120 hpf. When no TI could be calculated due to no malformations induction to a degree extensive enough to calculate the EC50 in the presence of high toxicity, the compound was considered a non-teratogen. (II) Neurotoxicity was assayed by evaluating the locomotor activity in embryos exposed to the tested compounds from 0 to 120 hpf using Zebrabox and Zebralab (ViewPoint). We tested three concentrations (24 embryos per concentration) below the NOEC to avoid readily toxic concentrations. After incubation with tested compounds for 120 hs in 96-well plates, the activity of larvae in response to transitions from dark to light was evaluated. The protocol involved an initial 10 min acclimation period inside the Zebrabox, followed by three cycles of light–dark of 10 min each. After the end of each cycle, the integrated activity of each embryo was registered. Statistical analysis was done using ANOVA, followed by the Tukey post hoc test. Differences were considered significant when p < 0.05. Dead embryos were not considered in the analysis. (III) The endocrine-disrupting effect in zebrafish embryos was assayed by real-time PCR as previously reported (Jarque et al. [2019]) with modifications. In brief, 0 hpf embryos (12 embryos per condition in triplicate) were incubated with selected compounds for up to 120 hpf. After incubation, treated (embryos incubated at the concentration right below the NOEC) and control embryos were collected in RNA later and kept at − 20°C until use. RNA was extracted from the samples using the RNeasy Mini Kit (QIAGEN) and was followed by cDNA synthesis using random primers and the AffinityScript Multi Temperature cDNA Synthesis Kit (Agilent Technologies).

zebrafish embryos [6] = settings: in vivo; remark: listed apart in the source
Protocol: as §1, with “Technologies). Finally, real-time PCR was performed for eight target genes to obtain data on the estrogenic (cytochrome P450 family 19 subfamily A member 1: cyp19a1b, and vitellogenin: vtg1), androgenic (cytochrome P450 family 2 […]: cyp2k22, and cytosolic sulphotransferase 3: sult2st3), and thyroid hormone (thyroid peroxidase: tpo, thyroid hormone receptor alpha: tra, transthyretin: ttr, and iodothyronine deiodinase 2: dio2) effect of the tested compounds. Significant changes in gene expression between controls and treated samples were considered as a potential endocrine-disrupting effect.” for “Technologies).”

Bhas 42 cell line = experiment: Bhas 42 cell transformation assay (carcinogenesis); assay type: cell-based
Protocol: This assay was carried out by adapting the in vitro Bhas 42 cell transformation assay method described in the OECD Guidance Document No. 231 ([2017]) based on the work of Sasaki et al. ([2014]).
It consists of two assays with a different test compound addition schedule to identify compounds with initiating activity (tumour initiators) or promoting activity (tumour promoters). Previously, a cell growth assay for 7 days is performed to set the assay doses of the CTA and another cell growth assay is concurrently performed to the CTA to verify that the selected doses meet the acceptance criteria for the tests.
The carcinogenesis potential of the compound was assayed by means of measuring the frequency of transformed foci (morphologically altered cells that form discrete anchorage-independent colonies) in the Bhas 42 cell line, which can be extrapolated to an assessment of carcinogenic potential. In the transformation assay, the incubation of compounds with two different treatment schedules allowed to identify the initiating or promoting carcinogenic potential of the compounds.

## CC(Cl)C(=O)c1ccc(Cl)cc1 (centres unmarked) [2-Chloro-1-(4-chlorophenyl)propan-1-one]
[1]; 6 h with or without S9, 24 h without S9
  Micronucleus assay (M): Negative

## C=Cc1ccccn1 [2-Ethenylpyridine]
[2]
  Experimental result: Yes

## COC(=O)C=Cc1ccccc1 [Methyl cinnamate]
[3]
  Bioaccumulation: No
[4]; experimental value
  Bioaccumulation (logKow): 2.62

## C=C(C)C(=O)O [Methacrylic acid]
[3]
  Bioaccumulation: No
[4]; experimental value
  Bioaccumulation (logKow): 0.93

## CC1=CC(=O)[C@@H](C(C)C)CC1 [(R)-6-(isopropyl)-3-methylcyclohex-2-en-1-one]
Zebrafish embryos [5]
  Reprotoxicity (R) Teratogen: No
[1]
  Micronucleus assay (M): Negative
Zebrafish embryos [6]
  Reprotoxicity (R) Endocrine disruptor: No
  reduction of embryo integrated activity: up to 80%

## CC(C)[C@H]1CC[C@H](C)C[C@@H]1O [Cyclohexanol, 5-methyl-2-(1-methylethyl)-, (1S,2R,5S)-]
[2]
  Experimental result: No

## Cc1cc(N)ccc1N.O=S(=O)(O)O [2,5-Diaminotoluene sulphate]
[2]
  Experimental result: No

## CCNC(N)=O [N-Ethylurea]
[3]
  Bioaccumulation: No
[4]; experimental value
  Bioaccumulation (logKow): -0.74

## O=[PH](O)O [Phosphonic acid]
Bhas 42 cell line
  Carcinogen (C): No
[2]
  Experimental result: No

## O=[N+]([O-])c1ccccc1 [Nitrobenzene]
[3]
  Bioaccumulation: No
[4]; experimental value
  Bioaccumulation (logKow): 1.85

## C=CC(=O)NC(C)C [N-Isopropylacrylamide]
[3]
  Bioaccumulation: No
[4]; predicted value
  Bioaccumulation (logKow): 0.41

## C#CCBr [Propargyl bromide]
[2]; endocrine disruptor yes/no
  Experimental result: Yes

## c1ccc2c(c1)ccc1ccccc12 [Phenanthrene]
[2]
  Experimental result: Yes

## CCCCCC1C(=O)CCC1CC(=O)OC (centres unmarked) [Methyl dihydrojasmonate]
[2]
  Experimental result: Yes
